# Data from PubChem BioAssay (NCI).
# Where “and” joins values, the source holds several entries; their conditions need not be identical. Identical values can stand only once.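 Five compound concentrations were applied to cells in 96-well plates for 48 hours; endpoints were derived by simple linear interpolation of the resulting dose-response curve. GI50: concentration for 50% inhibition of growth. TGI: concentration producing complete growth inhibition.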
# Columns and labels:
# Assay in all cases: NCI-60 cell line screen, 48 h
# SK-MEL-28 melanoma = system: SK-MEL-28 melanoma
# MDA-MB-231 breast = system: MDA-MB-231 breast
# SK-MEL-5 melanoma = system: SK-MEL-5 melanoma
# SNB-75 CNS = system: SNB-75 CNS
# CCRF-CEM leukemia = system: CCRF-CEM leukemia
# U251 CNS = system: U251 CNS
# A498 renal = system: A498 renal
# OVCAR-3 ovarian = system: OVCAR-3 ovarian
# HCT-15 colon = system: HCT-15 colon
# SN12C renal = system: SN12C renal
SMILES,GI50 (SK-MEL-28 melanoma) [µM],TGI (SK-MEL-28 melanoma) [µM],GI50 (MDA-MB-231 breast) [µM],TGI (MDA-MB-231 breast) [µM],GI50 (SK-MEL-5 melanoma) [µM],TGI (SK-MEL-5 melanoma),GI50 (SNB-75 CNS) [µM],TGI (SNB-75 CNS) [µM],GI50 (CCRF-CEM leukemia) [µM],TGI (CCRF-CEM leukemia),GI50 (U251 CNS) [µM],TGI (U251 CNS),GI50 (A498 renal) [µM],TGI (A498 renal) [µM],GI50 (OVCAR-3 ovarian) [µM],TGI (OVCAR-3 ovarian) [µM],GI50 (HCT-15 colon) [µM],TGI (HCT-15 colon),GI50 (SN12C renal) [µM],TGI (SN12C renal) [µM]
CC1=C(C(=O)Nc2ccc3[nH]ncc3c2)C(c2ccc(Cl)c(Cl)c2)CC(=O)N1 (stereo unspecified),> 25,> 25,15.9,> 25,> 25,> 25 µM,2.25,> 19.1,24.2,> 25 µM,> 25,> 25 µM,4.14,> 25,> 25,> 25,> 25,> 25 µM,> 25,> 25
COc1cc2oc(-c3ccc(O)cc3O)c(CC=C(C)C)c(=O)c2c(O)c1/C=C/C(C)C,–,13.9,–,6.17,–,3.06 µM,–,9.04,–,5.07 µM,–,6.12 µM,–,5.12,–,4.94,–,10.3 µM,–,3.35
CC(=O)c1ccc(Nc2nc(Nc3ccc(F)cc3)nc(Nc3ccc(F)cc3)n2)cc1,11,45,6.81,42.8,7.07,35.8 µM,5.62,29.5,3.77,> 100 µM,11.7,30.1 µM,4.69,18.3,10.6,33,8.49,> 100 µM,23.6,> 100
CCCCCCCCCCCCCCCC(=O)N[C@H](/C=C/[C@H](O)CCCCCCCCCCCCC)CO,> 100,> 100,> 100,> 100,> 100,> 100 µM,> 100,> 100,> 100,> 100 µM,> 100,> 100 µM,> 100,> 100,> 100,> 100,> 100,> 100 µM,> 100,> 100
C/C(=N\NC(=S)N1CCN(C2CCCCCC2)CC1)c1ccccn1,4.08,2.25,–,2.85,0.0204,8.38 µM and 1.01 µM,–,5.09,< 0.001,0.291 µM and 2.4 µM,< 0.001,3 µM and 2.1 µM,–,3.76,–,1.74,< 0.001,3.55 µM and 2.1 µM,2.02,2.96
O=C1CCCCC=C1C[N+](=O)[O-],28.5,92,22.2,49.4,26.9,74.3 µM,25.5,68.8,5.7,23.3 µM,33.9,> 100 µM,> 100,> 100,23.9,69.1,13.5,35.8 µM,31.6,> 100
Cc1cccc2nc3cccc(C(=O)NCCNCCNCCNC(=O)c4cccc5nc6cccc(C)c6nc45)c3nc12,0.101,4.37,0.161,3.93,< 0.0131,0.851 µM,0.181,1.44,0.0859,2.86 µM,< 0.01,1.04 µM,< 0.01,0.363,< 0.01,2.91,0.0268,> 100 µM,0.0489,14.1
